Data reported in the supplement of paper PMC11061612.

What was measured:
Assay in all cases: combination Emax (second highest fraction inhibited in the dose matrix, 72 h); higher = more inhibition; extreme values may be limits of the assay
[1] = test system: BICR22 (Oral Cavity Carcinoma)
Summary of the method: (§1)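 Cell lines grown in DMEM/F12 or RPMI with 10% FBS were plated in 1536-well plates and held 24 hours at 37°C, 5% CO2 before 72 hours of exposure to two-drug dose matrices, with DMSO typically at 0.2%. CellTiter-Glo 2.0 luminescence gave viability, which was converted to inhibition. Vehicle wells were set to 0 and blank wells to 1. Combination Emax is the second-highest inhibition in the matrix, and Bliss excess is the observed combination effect minus the expected EA + EB − EA·EB, where EA and EB are the single-agent effects.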

[2] = test system: CAPAN-2 (Pancreatic Carcinoma)
Summary of the method: as §1

CAS-1 (Glioblastoma) = test system: CAS-1 (Glioblastoma)
Summary of the method: as §1

[3] = test system: COLO-320-HSR (Colorectal Carcinoma)
Summary of the method: as §1

FU97 (Gastric Carcinoma) = test system: FU97 (Gastric Carcinoma)
Summary of the method: as §1

GI-ME-N (Neuroblastoma) = test system: GI-ME-N (Neuroblastoma)
Summary of the method: as §1

[4] = test system: KARPAS-422 (B-Cell Non-Hodgkin's Lymphoma)
Summary of the method: as §1

[5] = test system: MDST8 (Colorectal Carcinoma)
Summary of the method: as §1

[6] = test system: NCI-H1650 (Lung Adenocarcinoma)
Summary of the method: as §1

[7] = test system: NCI-H1693 (Lung Adenocarcinoma)
Summary of the method: as §1

[8] = test system: NCI-H2066 (Squamous Cell Lung Carcinoma)
Summary of the method: as §1

[9] = test system: NCI-H2141 (Small Cell Lung Carcinoma)
Summary of the method: as §1

NCI-H2591 (Mesothelioma) = test system: NCI-H2591 (Mesothelioma)
Summary of the method: as §1

[10] = test system: ONS-76 (Other Solid Carcinomas)
Summary of the method: as §1

[11] = test system: OS-RC-2 (Kidney Carcinoma)
Summary of the method: as §1

[12] = test system: SISO (Cervical Carcinoma)
Summary of the method: as §1

[13] = test system: SK-MG-1 (Low Grade Glioma)
Summary of the method: as §1

[14] = test system: TT2609-C02 (Thyroid Gland Carcinoma)
Summary of the method: as §1

U-2-OS (Osteosarcoma) = test system: U-2-OS (Osteosarcoma)
Summary of the method: as §1

[15] = test system: VCaP (Prostate Carcinoma)
Summary of the method: as §1

Row | Structure (SMILES) | combination Emax [1] | combination Emax [2] | combination Emax (CAS-1 (Glioblastoma)) | combination Emax [3] | combination Emax (FU97 (Gastric Carcinoma)) | combination Emax (GI-ME-N (Neuroblastoma)) | combination Emax [4] | combination Emax [5] | combination Emax [6] | combination Emax [7] | combination Emax [8] | combination Emax [9] | combination Emax (NCI-H2591 (Mesothelioma)) | combination Emax [10] | combination Emax [11] | combination Emax [12] | combination Emax [13] | combination Emax [14] | combination Emax (U-2-OS (Osteosarcoma)) | combination Emax [15]
1 | Cc1c2c(nn1C)CSCc1cc(n(C)n1)CSc1cc(c3ccccc3c1)OCCCc1c(C(=O)O)n(C)c3c-2c(Cl)ccc13 [AZD5991] + CCN(CCO)CCCOc1ccc2c(Nc3cc(CC(=O)Nc4cccc(F)c4)[nH]n3)ncnc2c1 [AZD2811] (first compound max 1 µM, 7x7, partner max 1 µM) | 0.675 | 0.239 | 0.705 | 0.827 | 0.284 | 0.354 | 0.981 | 0.362 | 0.269 | 0.211 | 0.304 | 0.428 | 0.265 | 0.386 | 0.21 | 0.808 | 0.465 | 0.456 | 0.307 | 0.94
2 | Cc1c2c(nn1C)CSCc1cc(n(C)n1)CSc1cc(c3ccccc3c1)OCCCc1c(C(=O)O)n(C)c3c-2c(Cl)ccc13 [AZD5991] + CN(C)CCCOc1ccc(-c2ccc3ncc4c(c3c2)n(C2CCOCC2)c(=O)n4C)cn1 [AZD0156] (first compound max 1 µM, 7x7, partner max 1 µM) | 0.323 | 0.276 | 0.532 | 0.888 | 0.318 | 0.307 | 0.982 | 0.242 | 0.2 | 0.211 | 0.234 | 0.265 | 0.185 | 0.239 | 0.25 | 0.201 | 0.539 | 0.212 | 0.263 | 0.913
3 | Cc1c2c(nn1C)CSCc1cc(n(C)n1)CSc1cc(c3ccccc3c1)OCCCc1c(C(=O)O)n(C)c3c-2c(Cl)ccc13 [AZD5991] + C[C@@H]1COCCN1C2=NC(=NC(=C2)C3(CC3)[S@](=N)(=O)C)C4=C5C=CNC5=NC=C4 [AZD6738] (first compound max 1 µM, 7x7, partner max 10 µM) | 0.846 | 0.35 | 0.877 | 0.97 | 0.392 | 0.431 | 1 | 0.78 | 0.516 | 0.432 | 0.359 | 0.628 | 0.392 | 0.821 | 0.363 | 0.607 | 0.566 | 0.392 | 0.599 | 0.947
4 | Cc1c2c(nn1C)CSCc1cc(n(C)n1)CSc1cc(c3ccccc3c1)OCCCc1c(C(=O)O)n(C)c3c-2c(Cl)ccc13 [AZD5991] + C[C@@H](Nc1cc(F)cc(F)c1)c1cc(C(=O)N(C)C)cc2c(=O)cc(N3CCOCC3)oc12 [AZD8186] (first compound max 1 µM, 7x7, partner max 3 µM) | 0.537 | 0.252 | 0.467 | 0.907 | 0.445 | 0.301 | 0.94 | 0.265 | 0.297 | 0.236 | 0.343 | 0.3 | 0.196 | 0.244 | 0.471 | 0.123 | 0.648 | 0.303 | 0.238 | 0.935
5 | Cc1c2c(nn1C)CSCc1cc(n(C)n1)CSc1cc(c3ccccc3c1)OCCCc1c(C(=O)O)n(C)c3c-2c(Cl)ccc13 [AZD5991] + Cc1cc2ncnn2cc1Nc1ncc2c(n1)n(C1CCOCC1)c(=O)n2C [AZD7648] (first compound max 1 µM, 7x7, partner max 10 µM) | 0.499 | 0.291 | 0.401 | 0.808 | 0.293 | 0.228 | 1 | 0.34 | 0.168 | 0.256 | 0.299 | 0.307 | 0.305 | 0.315 | 0.286 | 0.191 | 0.374 | 0.205 | 0.261 | 0.94
6 | Cc1c2c(nn1C)CSCc1cc(n(C)n1)CSc1cc(c3ccccc3c1)OCCCc1c(C(=O)O)n(C)c3c-2c(Cl)ccc13 [AZD5991] + Cn1cnc2c(F)c(Nc3ccc(Br)cc3Cl)c(C(=O)NOCCO)cc21 [Selumetinib] (first compound max 1 µM, 7x7, partner max 3 µM) | 0.959 | 0.482 | 0.286 | 0.801 | 0.411 | 0.421 | 0.998 | 0.746 | 0.16 | 0.319 | 0.258 | 0.22 | 0.27 | 0.631 | 0.238 | 0.173 | 0.339 | 0.569 | 0.331 | 0.911
7 | C[C@@H]1COCCN1c1cc(C2([S@](C)(=N)=O)CC2)nc(-c2ccnc3[nH]ccc23)n1 [AZD6738] + O=C(c1cc(Cc2n[nH]c(=O)c3ccccc23)ccc1F)N1CCN(C(=O)C2CC2)CC1 [Olaparib] (first compound max 10 µM, 7x7, partner max 10 µM) | 0.711 | 0.309 | 0.48 | 0.475 | 0.332 | 0.486 | 0.556 | 0.677 | 0.349 | 0.298 | 0.388 | 0.51 | 0.348 | 0.894 | 0.435 | 0.595 | 0.552 | 0.316 | 0.723 | 0.374
8 | Cc1cc2ncnn2cc1Nc1ncc2c(n1)n(C1CCOCC1)c(=O)n2C [AZD7648] + C=CCn1c(=O)c2cnc(Nc3ccc(N4CCN(C)CC4)cc3)nc2n1-c1cccc(C(C)(C)O)n1 [AZD1775] (first compound max 10 µM, partner max 1 µM) | 0.643 | 0.485 | 0.566 | 0.744 | 0.397 | 0.393 | 0.784 | 0.513 | 0.417 | 0.323 | 0.339 | 0.647 | 0.368 | 0.589 | 0.419 | 0.577 | 0.594 | 0.304 | 0.614 | 0.533
9 | Cc1cc2ncnn2cc1Nc1ncc2c(n1)n(C1CCOCC1)c(=O)n2C [AZD7648] + CCN(CCO)CCCOc1ccc2c(Nc3cc(CC(=O)Nc4cccc(F)c4)[nH]n3)ncnc2c1 [AZD2811] (first compound max 10 µM, 7x7, partner max 1 µM) | 0.605 | 0.239 | 0.427 | 0.209 | 0.337 | 0.207 | 0.556 | 0.485 | 0.287 | 0.263 | 0.356 | 0.358 | 0.37 | 0.398 | 0.287 | 0.265 | 0.461 | 0.244 | 0.229 | 0.314
10 | Cc1cc2ncnn2cc1Nc1ncc2c(n1)n(C1CCOCC1)c(=O)n2C [AZD7648] + CN(C)CCCOc1ccc(-c2ccc3ncc4c(c3c2)n(C2CCOCC2)c(=O)n4C)cn1 [AZD0156] (first compound max 10 µM, 7x7, partner max 1 µM) | 0.384 | 0.253 | 0.314 | 0.27 | 0.382 | 0.157 | 0.479 | 0.439 | 0.25 | 0.222 | 0.321 | 0.229 | 0.334 | 0.26 | 0.261 | 0.16 | 0.359 | 0.0937 | 0.176 | 0.265
11 | Cc1cc2ncnn2cc1Nc1ncc2c(n1)n(C1CCOCC1)c(=O)n2C [AZD7648] + C[C@@H]1COCCN1C2=NC(=NC(=C2)C3(CC3)[S@](=N)(=O)C)C4=C5C=CNC5=NC=C4 [AZD6738] (first compound max 10 µM, 7x7, partner max 10 µM) | 0.761 | 0.346 | 0.609 | 0.616 | 0.42 | 0.59 | 0.639 | 0.775 | 0.324 | 0.294 | 0.379 | 0.578 | 0.39 | 0.825 | 0.419 | 0.505 | 0.584 | 0.191 | 0.675 | 0.452
12 | Cc1cc2ncnn2cc1Nc1ncc2c(n1)n(C1CCOCC1)c(=O)n2C [AZD7648] + O=C(c1cc(Cc2n[nH]c(=O)c3ccccc23)ccc1F)N1CCN(C(=O)C2CC2)CC1 [Olaparib] (first compound max 10 µM, 7x7, partner max 10 µM) | 0.141 | 0.0547 | 0.271 | 0.073 | 0.291 | 0.141 | 0.55 | 0.289 | 0.0772 | 0.172 | 0.295 | 0.218 | 0.248 | 0.246 | 0.224 | 0.207 | 0.238 | 0.156 | 0.118 | 0.141
13 | NC1(C(=O)N[C@@H](CCO)c2ccc(Cl)cc2)CCN(c2ncnc3[nH]ccc23)CC1 [Capivasertib] + CC(=O)c1c(C)c2cnc(Nc3ccc(N4CCNCC4)cn3)nc2n(C2CCCC2)c1=O [Palbociclib] (first compound max 10 µM, 7x7, partner max 10 µM) | 0.329 | 0.242 | 0.635 | 0.263 | 0.358 | 0.422 | 0.771 | 0.656 | 0.351 | 0.485 | 0.507 | 0.299 | 0.364 | 0.557 | 0.454 | 0.201 | 0.62 | 0.376 | 0.408 | 0.514
